From ChEMBL document CHEMBL1156770, “X-ray crystallographic analysis of alpha-ketoheterocycle inhibitors bound to a humanized variant of fatty acid amide hydrolase” (J Med Chem, 2010) come the findings set out here.

As usually defined, the Ki is a measure of affinity in units of concentration, obtained from inhibition or displacement. High values mean lower affinity, low ones higher affinity.

The target of this assay is T1, Fatty-acid amide hydrolase 1 (Homo sapiens, UniProt O00519).
T1 sequence (O00519 whole entry): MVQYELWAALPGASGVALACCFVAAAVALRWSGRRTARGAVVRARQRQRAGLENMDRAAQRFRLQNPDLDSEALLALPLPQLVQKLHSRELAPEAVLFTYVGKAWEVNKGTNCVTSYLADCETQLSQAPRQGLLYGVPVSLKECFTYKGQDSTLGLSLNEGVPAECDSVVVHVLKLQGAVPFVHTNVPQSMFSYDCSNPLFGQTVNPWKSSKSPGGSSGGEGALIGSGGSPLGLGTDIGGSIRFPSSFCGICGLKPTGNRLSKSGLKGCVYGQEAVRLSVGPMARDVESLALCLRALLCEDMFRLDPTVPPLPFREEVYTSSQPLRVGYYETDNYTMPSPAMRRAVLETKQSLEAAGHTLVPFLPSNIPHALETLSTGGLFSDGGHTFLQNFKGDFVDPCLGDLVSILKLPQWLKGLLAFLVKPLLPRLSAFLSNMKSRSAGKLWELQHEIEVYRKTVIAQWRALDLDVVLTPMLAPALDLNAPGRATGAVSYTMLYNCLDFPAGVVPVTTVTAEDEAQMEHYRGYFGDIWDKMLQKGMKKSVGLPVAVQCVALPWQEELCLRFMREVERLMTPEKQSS
In words: Inhibition of FAAH.

Regarding `CCCCCCCC/C=C\CCCCCCCC(=O)c1ncc(-c2ccccn2)o1`, affinity was put at a Ki of 3 nM.
